Test results from patent US20040241239A1, “Mixed complexes for masking the taste of bitter active substances” (priority 2001, published 2004).
≈ marks a conversion by molar mass, not a printed value.

Test: Solubility of HMR 3647
Format: physicochemical
Method: HMR 3647 has the chemical formula C43H65N5O10 and has a molecular weight of 812.0 g/mol. […] At acidic pH, the solubility can be increased to 80 mg/ml, since the protonated cation is formed at this pH.

- solubility (aqueous medium at acidic pH, aqueous buffer, acidic pH, protonated cation): 80 mg/mL (≈ 98.5 mM)
- water solubility (water): very poorly water-soluble
Structure (SMILES): CC[C@H]1OC(=O)[C@H](C)C(=O)[C@H](C)[C@@H](O[C@@H]2O[C@H](C)C[C@H](N(C)C)[C@H]2O)[C@](C)(OC)C[C@@H](C)C(=O)[C@H](C)[C@H]2N(CCCCn3cnc(-c4cccnc4)c3)C(=O)O[C@]12C [HMR 3647]
